Reference: paper PMC5608352, “Formyl peptide derived lipopeptides disclose differences between the receptors in mouse and men and call the pepducin concept in question” (PLoS ONE, 2017)
Entries after “also recorded” stand apart in the source; their conditions may differ. Residues, ends and D or L forms follow the SMILES beside them. *: point of attachment. Palmitoyl = CCCCCCCCCCCCCCCC(=O)*

Tests used:
Assay type in all cases: cell-based
Fpr2 [1] = target: T1, Fpr2 (Mus musculus, UniProt O88536); assay: Inhibition of F2Pal16-induced superoxide release, WT mouse neutrophils; conditions: Boc2 2 μM or peptidomimetic inhibitor 1 μM (five experiments), or mF2Pal16 500 nM against F2Pal16 500 nM (three experiments); 5 min pre-incubation
T1 construct: WT mouse neutrophils (5 x 10^4 cells) were pre-incubated without (solid line) or with mF2Pal16; endogenous in cells; host or cells: bone marrow neutrophils of C57BL/6 wild-type mice, TNF-alpha primed
T1 sequence (O88536 1-351): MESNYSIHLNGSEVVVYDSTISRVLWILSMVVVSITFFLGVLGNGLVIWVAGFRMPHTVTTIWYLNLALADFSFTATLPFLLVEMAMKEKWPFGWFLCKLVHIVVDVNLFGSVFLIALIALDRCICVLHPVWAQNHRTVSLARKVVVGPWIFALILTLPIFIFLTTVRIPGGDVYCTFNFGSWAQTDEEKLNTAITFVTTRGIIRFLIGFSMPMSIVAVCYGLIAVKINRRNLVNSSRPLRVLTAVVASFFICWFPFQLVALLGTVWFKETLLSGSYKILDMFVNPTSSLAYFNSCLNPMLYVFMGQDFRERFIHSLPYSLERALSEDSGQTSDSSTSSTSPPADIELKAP
Excerpt: Mice (8–12 weeks of age) were killed by cervical dislocation, the femurs and tibias were removed and freed of soft tissue attachments, and the extreme distal tip of each extremity was cut off. KRG without Ca^2+ and Mg^2+ (KRG-) was forced through the bone by using a 1-mL syringe with a 27-gauge needle. After dispersing cell clumps and removing the debris, the bone marrow granulocytes were isolated according to an earlier described procedure with some modifications. Briefly, a cell suspension in 2 mL of KRG- was laid on top of a three-layer Percoll gradient (1.095, 1.085, and 1.070 g/mL). The density of each Percoll solution was verified using density marker beads. After centrifugation at 500 × g for 30 min at 4°C in a swinging bucket rotor, the lowest band (1.085/1.095 g/mL interface) was collected as the neutrophil fraction. After washing with KRG-, remaining red blood cells were eliminated by hypotonic lysis. After a final wash with KRG-, the cells were resuspended in KRG. The cell number and population of bone marrow cells were determined by flow cytometry based on forward scatter (size) and side scatter (density) localization.
(§1) NADPH-oxidase activity was determined using an isoluminol and HRP-enhanced chemiluminescence (CL) system that allow for the determination of superoxide production. The CL activity was measured in a six-channel Biolumat LB 9505 apparatus (Berthold Co., Wildbad, Germany), using disposable 4-mL polypropylene tubes with 1 mL reaction mixture. […] The light emission was recorded continuously over time and presented as superoxide production (in arbitrary light units, cpm x10^-6) as a function of time (min). The activity before stimulus addition was recorded as basal line and this activity was not changed in vehicle control samples. […]
(§2) Data analysis was performed using Graph Pad Prism 7.0. The EC50/IC50 values were determined from experiments in which the activities were normalized to the response induced by maximal response or induced by agonist in the absence of inhibitor. […]

FPR2 [2] = assay: Inhibition of PSMα2-induced superoxide release, human neutrophils
Excerpt: (§3) Human peripheral blood neutrophils were isolated from buffy coats from healthy blood donors using dextran sedimentation and Ficoll-Paque gradient centrifugation as described. The remaining erythrocytes were disrupted by hypotonic lysis and the neutrophils were washed twice, suspended in KRG and, stored on melting ice until use. This isolation process permits cells to be purified with minimal granule mobilization. The buffy coats were obtained from the blood bank at Sahlgrenska University Hospital. Ethics approval was not needed since the buffy coats were provided anonymously and could not be traced back to a specific individual. This is in line with Swedish legislation section code 4§ 3p SFS 2003:460 (Lag om etikprövning av forskning som avser människor).
as §1

FPR2 [3] = assay: Receptor preference in human neutrophils (FPR2 versus FPR1); conditions: conclusion from superoxide release experiments
Excerpt: as §3, §1

FPR2 [4] = target: T2, FPR2 (Homo sapiens, UniProt P25090); assay: Inhibition of WKYMVM-induced superoxide release, human neutrophils
T2 construct: Human peripheral blood neutrophils were isolated from buffy coats from healthy blood donors; endogenous in cells; host or cells: human peripheral blood neutrophils from buffy coats of healthy donors
T2 sequence (P25090 1-351): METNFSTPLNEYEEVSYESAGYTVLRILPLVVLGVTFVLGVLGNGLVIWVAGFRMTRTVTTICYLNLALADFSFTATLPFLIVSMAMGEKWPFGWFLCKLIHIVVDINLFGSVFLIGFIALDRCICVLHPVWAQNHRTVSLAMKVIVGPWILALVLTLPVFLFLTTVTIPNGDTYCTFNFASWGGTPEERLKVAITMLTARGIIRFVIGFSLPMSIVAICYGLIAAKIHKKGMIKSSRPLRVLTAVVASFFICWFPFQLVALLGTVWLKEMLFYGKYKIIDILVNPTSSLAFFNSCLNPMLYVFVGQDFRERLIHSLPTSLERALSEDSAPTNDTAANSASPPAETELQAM
Excerpt: as §3
NADPH-oxidase activity was determined using an isoluminol and HRP-enhanced chemiluminescence (CL) system that allow for the determination of superoxide production. The CL activity was measured in a six-channel Biolumat LB 9505 apparatus (Berthold Co., Wildbad, Germany), using disposable 4-mL polypropylene tubes with 1 mL reaction mixture. The tubes contained 4 U HRP and 10 μg/mL isoluminol together with the cells that were equilibrated in the Biolumat for 5 min at 37°C, after which the stimulus solution (100 μL) was added. The light emission was recorded continuously over time and presented as superoxide production (in arbitrary light units, cpm x10^-6) as a function of time (min). The activity before stimulus addition was recorded as basal line and this activity was not changed in vehicle control samples. […]
as §2
Human neutrophils (10^5 cells) were pre-incubated without (solid line) or with mF2Pal16 (1 μM) for 5 min before stimulation with A) the FPR2 specific agonist WKYMVM (50 nM, indicated by the arrow). […] The release of superoxide anions was measured continuously. […]

CCCCCCCCCCCCCCCC(=O)N[C@@H](CCCCN)C(=O)N[C@H](C(=O)N[C@@H](CC(N)=O)C(=O)N[C@@H](CCCNC(=N)N)C(=O)N[C@@H](CCCNC(=N)N)C(=O)N[C@@H](CC(N)=O)C(=O)N[C@@H](CC(C)C)C(=O)N[C@H](C(=O)N[C@@H](CC(N)=O)C(=O)N[C@@H](CO)C(=O)N[C@@H](CO)C(=O)N[C@@H](CCCNC(=N)N)C(=O)N1CCC[C@H]1C(=O)N[C@@H](CC(C)C)C(=O)N[C@@H](CCCNC(=N)N)C(=O)N[C@H](C(=O)O)C(C)C)C(C)C)[C@@H](C)CC [mF2Pal16] (Palmitoyl-KINRRNLVNSSRPLRV-OH; C-terminus assumed)
effect of inhibitor on F2Pal16 response, WT mouse neutrophils (Fpr2 [1]): inhibitory effect
effect on PSMα2 response, human neutrophils (FPR2 [2]): largely inhibited
receptor preference / modulation of FPR2 (versus FPR1) in human neutrophils (FPR2 [3]): potent and selective inhibitor for Fpr2/FPR2; also recorded: inhibits the activity of FPR2 in human neutrophils
magnitude of FPR2 inhibitory effect compared with PBP10 (FPR2 [4]; human neutrophils): not of the same magnitude as that of the most potent FPR2 inhibitor PBP10
effect on WKYMVM response, human neutrophils (FPR2 [4]; pepducin 1 μM pre-incubated (mF2Pal16, F1Pal16: 5 min), WKYMVM 50 nM): largely inhibited
